Tests used:
[1] = Metabolism in pooled human liver microsomes; assay type: in vitro ADME; details: for half-life: pH 7.4, pooled human liver microsomes, disappearance of parent, read-out: HLMs t1/2; for HLMs Enzyme: enzyme type metabolising the compound in HLMs (with/without NADPH)
Description: Compounds were incubated in pooled human liver microsomes (HLMs) in the presence or absence of an NADPH-generating system. NADPH is required for the activity of cytochrome P450 (CYP) and other oxidative enzymes present in HLMs, but not for esterase activity. An additional incubation was carried out in the absence of HLM to assess compound stability. The disappearance of parent and the appearance of the corresponding acid metabolite were monitored over the time course of the incubations using LC-MS/MS.
A stock solution (20 mM) of each proprietary compound in DMSO was prepared and stored at −20° C. until needed. A working stock solution (0.2 mM) was prepared for each proprietary compound by adding an aliquot of the stock solution (10 μL) to acetonitrile (990 μL).
An aliquot of the HLM solution was removed from the −80° C. freezer and placed on ice. Tris Buffer (50 mM, pH 7.4) containing MgCl2 (hexahydrate, 5 mM) was pre-incubated in a 37° C. water bath. A set of Eppendorf microfuge tubes (1.5 mL) was appropriately labeled. To each tube was added Tris buffer with or without the NADPH generating system. An aliquot of pooled HLMs was added to all the incubations except those that were the buffer control.
Tubes were preincubated for 5 min in a shaking incubator bath (37° C., 900 rpm) and the reaction was initiated by adding an aliquot of the proprietary working solution (5 μL). The additions were timed carefully in order to coordinate the sample collections below. A small aliquot (50 μL) was removed at […] and delivered to the respective tubes containing dextrorphan (100 μL of 0.5 μg/mL solution) dissolved in methanol or acetonitrile. The samples were centrifuged at 14000 g for 15 minutes at 4° C. The supernatant was transferred to clean labeled HPLC injection vials and stored at −80° C. until analyzed. An aliquot of the supernatant (25 μL) was added to water (75 μL), mixed and injected onto the LC-MS/MS system for analysis. Results for some compounds of the invention can be found below in the table in Example 20.

pig liver esterase = assay: Metabolism by pig liver esterase with and without human plasma proteins; assay type: in vitro ADME
Description: The esterase-mediated metabolism of these compounds was studied using commercially available pig liver esterase in the presence and absence of human plasma proteins. The disappearance of parent was monitored over the time course of the incubations using a LC-UV detection system.
A stock solution and working stock solution was prepared for each proprietary compound as described for the human liver microsomal incubations. Working solutions of pig liver esterase in potassium phosphate buffer (10 mM, pH 7.4) and pig liver esterase in human plasma protein were prepared by dissolving pig liver esterase (2.51 mg) in the phosphate buffer or plasma protein solutions, respectively.
A set of three Eppendorf microfuge tubes (1.5 mL) was appropriately labeled. To each tube was added 1.5 mL of phosphate buffer, pig liver esterase in buffer, or pig liver esterase in human plasma protein solution. These solutions were pre-incubated (37° C., 900 rpm) and the reactions were initiated by adding an aliquot (37.5 μL) of the working solution of proprietary compound to each tube. An aliquot (100 μL) from each tube was removed at time 0, 5, 30, 60, and 120 min and added to a tube containing acetonitrile (200 μL) to stop the reaction.
The samples were centrifuged at 14000 g for 15 minutes at 4° C. The supernatant was transferred to clean labeled HPLC injection vials and stored at −80° C. until analyzed. An aliquot of the supernatant (25 μL) was injected onto the LC-UV system for analysis.

[2] = target: T1, human D2L dopamine receptors (Homo sapiens, UniProt P14416); assay: hD2L receptor radioligand binding ([3H]spiperone); details: for Ki: pKi reported on a scale of 1 through 5, read-out: D2L (pKi) (converted)
T1 construct: expressed in transfected cells; host or cells: insect Sf9 cells (membranes)
Outline: (§1)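 Competition binding on receptor-bearing membranes or cells: one fixed radioligand concentration at equilibrium, with a range of unlabelled test compound concentrations. Bound and free radioligand separated by filtration. Nonspecific binding defined with a known blocker, and displacement curves corrected for it.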

[3] = tested on: apomorphine-induced disruption of swimming in mice; assay: Antagonism of apomorphine-induced disruption of swimming in mice; assay type: in vivo
Excerpt: The antagonism of apomorphine-induced disruption of swimming in mice (Warawa, E. J. et al. (2001). Behavioral approach to nondyskinetic dopamine antagonists: identification of seroquel. J. Med. Chem., 44, 372-389) was used to assess test compounds. Apomorphine-treated mice fail to swim and remain in place, pawing the walls of the swimming chamber, or making abortive swims. Certain atypical antipsychotic compounds “normalize” the swimming behavior of such mice.
The animals (Swiss Webster, female, about 20 g; Charles River) were administered compounds of the invention (0.1 μg/kg-30 mg/kg ip) […] before they were dosed with apomorphine HCl at 1.25 mg/kg sc. Twenty seven minutes after test compound injection, and fifteen minutes after apomorphine injection, each mouse was placed into a circular swimming tank for 2 minutes and the number of “swims” were counted. The height of the tank is 15 cm and the diameter is 28 cm. A circular obstacle, 10.5 cm in diameter and 17 cm high was placed in the center of the tank creating a circular swimming channel 8.75 cm wide. The water level is 5.5 cm and the water was kept at room temperature (about 20° C.). Marks are placed on the floor and side of the tank 180 degrees apart. A “swim” was scored each time a mouse swims from one mark to the other and the median number of swims for all the mice was used as the score for that treatment.

[4] = tested on: locomotor activity in rats; assay: Spontaneous locomotor activity (open field); assay type: in vivo
Description: One of the common side effects of many antipsychotic drugs is sedation. It has been shown that agents that have sedative actions in man have the same effect in animals. The purpose of these studies was to evaluate the effect of test compounds on the locomotor activity in rats, which is used to assess the sedative properties of antipsychotic compounds.
The animals (male Sprague Dawley rats, about 300-450 g; Charles River) were assessed for ambulation for 30 minutes before and for 30 min after vehicle or test compounds. […] Locomotor activity is quantified by the number of photobeams crossed by the animal over several 3×10 min intervals.

human 5HT7 receptors = target: T2, human 5HT7 receptors (Homo sapiens, UniProt P34969); assay: h5-HT7 receptor radioligand binding ([3H]5-CT); details: pKi reported on a scale of 1 through 5; read-out: 5HT7 (pKi) (converted)
T2 construct: expressed in transfected cells; host or cells: Chinese hamster ovary cells (membranes)
Outline: as §1

[5] = pig liver esterase in potassium phosphate buffer, pH 7.4, pig liver esterase in phosphate buffer, no plasma protein
[6] = pig, pig liver esterase in human plasma protein solution

T1 sequence (P14416 whole entry): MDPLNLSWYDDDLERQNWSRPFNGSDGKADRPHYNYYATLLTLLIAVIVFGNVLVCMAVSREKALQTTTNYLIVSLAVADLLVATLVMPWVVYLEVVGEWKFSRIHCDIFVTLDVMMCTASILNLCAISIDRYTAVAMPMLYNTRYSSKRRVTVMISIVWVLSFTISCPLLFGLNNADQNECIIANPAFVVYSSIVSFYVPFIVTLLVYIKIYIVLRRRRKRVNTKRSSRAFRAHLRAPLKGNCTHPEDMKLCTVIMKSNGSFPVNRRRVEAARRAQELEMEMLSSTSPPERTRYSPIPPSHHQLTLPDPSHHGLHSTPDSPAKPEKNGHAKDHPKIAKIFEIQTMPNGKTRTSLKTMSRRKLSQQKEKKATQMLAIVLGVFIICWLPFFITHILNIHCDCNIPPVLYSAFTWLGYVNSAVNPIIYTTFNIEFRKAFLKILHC
T2 sequence (P34969 whole entry): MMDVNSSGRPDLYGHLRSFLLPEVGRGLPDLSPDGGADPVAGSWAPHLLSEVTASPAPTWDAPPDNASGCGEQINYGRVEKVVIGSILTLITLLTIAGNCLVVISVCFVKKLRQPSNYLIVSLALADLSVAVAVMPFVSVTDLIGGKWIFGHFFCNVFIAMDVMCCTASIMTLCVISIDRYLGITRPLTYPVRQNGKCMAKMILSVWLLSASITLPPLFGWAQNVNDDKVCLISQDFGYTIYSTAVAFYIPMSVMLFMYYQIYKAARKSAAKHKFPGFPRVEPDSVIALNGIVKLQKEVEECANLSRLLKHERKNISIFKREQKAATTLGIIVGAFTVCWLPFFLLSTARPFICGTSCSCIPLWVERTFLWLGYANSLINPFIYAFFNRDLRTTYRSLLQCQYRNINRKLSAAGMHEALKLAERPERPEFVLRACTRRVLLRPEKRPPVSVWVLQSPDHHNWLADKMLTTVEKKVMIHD

Compound | half-life [1] | half-life at 4.9 µM (pig liver esterase; [5]) | half-life at 4.9 µM (pig liver esterase; [6]) | Ki [2] | HLMs Enzyme [1] | Ki (human 5HT7 receptors) | further results
CC(C)OC(=O)CC1CN(C2=Nc3cc(Cl)ccc3Oc3ccccc32)CCN1 (stereo not drawn) [L, (E)-isopropyl 2-(4-(8-chlorodibenzo[b,f][1,4]oxazepin-11-yl)piperazin-2-yl)acetate] | 30 min | < 5 min | 30 min | 631 to 2450 nM |  |  | 
CCOC(=O)CC1CN(C2=Nc3ccc(F)cc3Oc3ccccc32)CCN1 (stereo not drawn) [J, (E)-ethyl 2-(4-(7-fluorodibenzo[b,f][1,4]oxazepin-11-yl)piperazin-2-yl)acetate] | 10 min | < 5 min | 15 min | 2510 to 9770 nM | Esterase |  | 
O=C(O)C[C@H]1CN(C2=Nc3cc(Cl)ccc3Oc3ccccc32)CCN1 [Compound Q, (S,E)-2-(4-(8-chlorodibenzo[b,f][1,4]oxazepin-11-yl)piperazin-2-yl)acetic acid] |  |  |  | > 10000 nM |  |  | reversal of apomorphine-induced disruption of swimming ([3]; 3 and 10 mg/kg): reversed; locomotor activity in rat (open field) ([4]; 10 mg/kg): did not reduce; binds to D2L dopamine receptors ([2]; in words): not
O=C(C[C@H]1CN(C2=Nc3cc(Cl)ccc3Oc3ccccc32)CCN1)OC1CCOCC1 [DV, (S,E)-tetrahydro-2H-pyran-4-yl 2-(4-(8-chlorodibenzo[b,f][1,4]oxazepin-11-yl)piperazin-2-yl)acetate] | 60 min | < 5 min | 15 min | 2510 to 9770 nM | Esterase | 1580 to 3890 nM | 
O=C(C[C@H]1CN(C2=Nc3cc(Cl)ccc3Oc3ccccc32)CCN1)OC1CCCC1 [DR, (S,E)-cyclopentyl 2-(4-(8-chlorodibenzo[b,f][1,4]oxazepin-11-yl)piperazin-2-yl)acetate] | 30 min | < 5 min | 15 min | 631 to 2450 nM | Esterase | 1580 to 3890 nM | 
CCC(C)OC(=O)C[C@H]1CN(C2=Nc3cc(Cl)ccc3Oc3ccccc32)CCN1C (stereo partly drawn) [DY, sec-butyl 2-((S)-4-((E)-8-chlorodibenzo[b,f][1,4]oxazepin-11-yl)-1-methylpiperazin-2-yl)acetate] | < 5 min | < 5 min | 30 min |  | Esterase | > 10000 nM | 
CCOC(=O)CC1CN(C2=Nc3cc(Cl)ccc3Oc3ccccc32)CCN1 (stereo not drawn) [A, (E)-ethyl 2-(4-(8-chlorodibenzo[b,f][1,4]oxazepin-11-yl)piperazin-2-yl)acetate] | 30 min | < 5 min | 15 min | 631 to 2450 nM | Esterase |  | 
O=C(C[C@H]1CN(C2=Nc3cc(Cl)ccc3Oc3ccccc32)CCN1)O[C@H]1CCOC1 [EQ, (S)-tetrahydrofuran-3-yl 2-((S)-4-((E)-8-chlorodibenzo[b,f][1,4]oxazepin-11-yl)piperazin-2-yl)acetate] | 15 min | 5 min | 30 min |  | Esterase |  | 
CC(C)OC(=O)CC1CN(C2=Nc3ccc(F)cc3Oc3ccccc32)CCN1 (stereo not drawn) [M, (E)-isopropyl 2-(4-(7-fluorodibenzo[b,f][1,4]oxazepin-11-yl)piperazin-2-yl)acetate] | 30 min | < 5 min | 15 min | 2510 to 9770 nM |  |  | 
CCOC(=O)C[C@H]1CN(C2=Nc3cc(Cl)ccc3Oc3ccccc32)CCN1CCC(C)C [ER, (S,E)-ethyl 2-(4-(8-chlorodibenzo[b,f][1,4]oxazepin-11-yl)-1-isopentylpiperazin-2-yl)acetate] | 5 min | < 5 min | 60 min |  | Esterase |  | 
CN1CCN(C2=Nc3cc(Cl)ccc3Oc3ccccc32)C[C@@H]1CC(=O)NCC(F)(F)C(F)(F)F [EU, (S,E)-2-(4-(8-chlorodibenzo[b,f][1,4]oxazepin-11-yl)-1-methylpiperazin-2-yl)-N-(2,2,3,3,3-pentafluoropropyl)acetamide] | 60 min |  |  |  |  |  | Pig Liver Esterase (t1/2 min.) (+) plasma (pig liver esterase; pig liver esterase in human plasma protein solution): Stable; Pig Liver Esterase (t1/2 min.) (−) plasma (pig liver esterase; pig liver esterase in phosphate buffer, no plasma protein): Stable
CCOC(=O)C[C@H]1CN(C2=Nc3cc(Cl)ccc3Oc3ccccc32)CCN1 [Compound K, (S,E)-ethyl 2-(4-(8-chlorodibenzo[b,f][1,4]oxazepin-11-yl)piperazin-2-yl)acetate] |  |  |  | 631 to 2450 nM |  | 631 to 1550 nM | antagonizing the apomorphine-induced disruption of swimming, potency vs clozapine ([3]; ip, apomorphine HCl 1.25 mg/kg sc): more potent than clozapine; locomotor activity in rat (open field) ([4]; 0.03-10 mg/kg): did not reduce; IC50 binding affinity for D2L receptors ([2]; in words): low micromolar; binds to D2L dopamine receptors ([2]; in words): Binds; affinity for the D2L receptor compared with clozapine ([2]; relative to clozapine, in words): comparable

Reference: US20120178738A1, “DIBENZO [B,F] [1,4]OXAZAPINE COMPOUNDS” (ARYX THERAPEUTICS, INC., priority 2007, published 2012)
